From patent publication US10004732B2 (Novartis AG, priority 2014, dated 2018)
pIC50: −log10 of the molar value.

Legend:
PI 3-kinase alpha [1] = target: T1, PI 3-kinase alpha (Homo sapiens, UniProt P42336); experiment: Kinase Glo Luminescent Kinase Assay (Kglo), assay A; type: biochemical; conditions: read-out: Assay A PI3Kα IC50
PI 3-kinase beta [2] = target: T2, PI 3-kinase beta (Homo sapiens, UniProt P42338); experiment: Kinase Glo Luminescent Kinase Assay (Kglo), assay B; type: biochemical; conditions: read-out: Assay B PI3Kβ IC50
Target sequence in this assay (P42338 whole entry): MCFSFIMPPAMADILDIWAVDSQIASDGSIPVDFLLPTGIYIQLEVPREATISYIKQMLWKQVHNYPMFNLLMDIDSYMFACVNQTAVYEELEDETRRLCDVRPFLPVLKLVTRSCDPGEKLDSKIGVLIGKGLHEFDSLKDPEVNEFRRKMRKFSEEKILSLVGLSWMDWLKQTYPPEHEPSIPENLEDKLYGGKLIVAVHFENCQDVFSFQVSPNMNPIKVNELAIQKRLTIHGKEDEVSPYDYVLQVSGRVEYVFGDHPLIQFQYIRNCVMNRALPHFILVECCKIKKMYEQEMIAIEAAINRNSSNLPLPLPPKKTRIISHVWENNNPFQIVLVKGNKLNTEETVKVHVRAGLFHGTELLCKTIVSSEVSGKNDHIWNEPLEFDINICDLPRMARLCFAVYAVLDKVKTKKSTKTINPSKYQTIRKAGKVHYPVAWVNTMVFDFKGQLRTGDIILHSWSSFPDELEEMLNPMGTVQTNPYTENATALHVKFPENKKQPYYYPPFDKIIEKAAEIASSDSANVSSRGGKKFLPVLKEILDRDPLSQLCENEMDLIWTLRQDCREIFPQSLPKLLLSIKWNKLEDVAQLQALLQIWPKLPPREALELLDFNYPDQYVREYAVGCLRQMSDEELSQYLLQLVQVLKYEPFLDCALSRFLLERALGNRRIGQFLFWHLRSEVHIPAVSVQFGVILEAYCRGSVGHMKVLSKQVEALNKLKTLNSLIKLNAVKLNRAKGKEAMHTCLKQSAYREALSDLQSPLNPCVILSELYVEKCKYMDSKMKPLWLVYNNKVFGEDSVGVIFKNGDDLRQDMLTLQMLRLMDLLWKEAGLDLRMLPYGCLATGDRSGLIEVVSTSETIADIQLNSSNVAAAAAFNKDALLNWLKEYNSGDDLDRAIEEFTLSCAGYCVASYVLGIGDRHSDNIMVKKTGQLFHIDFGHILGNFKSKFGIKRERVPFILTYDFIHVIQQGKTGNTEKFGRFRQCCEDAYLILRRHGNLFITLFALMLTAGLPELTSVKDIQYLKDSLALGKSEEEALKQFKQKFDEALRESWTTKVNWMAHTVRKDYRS
Target sequence in this assay (P27986 461-568 partner): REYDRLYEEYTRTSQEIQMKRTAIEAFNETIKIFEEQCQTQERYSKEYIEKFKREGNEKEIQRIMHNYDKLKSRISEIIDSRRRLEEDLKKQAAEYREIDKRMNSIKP

Vps34 = Vps34 (Homo sapiens, UniProt Q8NEB9); experiment: Kinase Glo Luminescent Kinase Assay (Kglo), assay C; type: biochemical; conditions: read-out: Assay C VPS34 IC50
Vps34, sequence (Q8NEB9 whole entry, species assumed): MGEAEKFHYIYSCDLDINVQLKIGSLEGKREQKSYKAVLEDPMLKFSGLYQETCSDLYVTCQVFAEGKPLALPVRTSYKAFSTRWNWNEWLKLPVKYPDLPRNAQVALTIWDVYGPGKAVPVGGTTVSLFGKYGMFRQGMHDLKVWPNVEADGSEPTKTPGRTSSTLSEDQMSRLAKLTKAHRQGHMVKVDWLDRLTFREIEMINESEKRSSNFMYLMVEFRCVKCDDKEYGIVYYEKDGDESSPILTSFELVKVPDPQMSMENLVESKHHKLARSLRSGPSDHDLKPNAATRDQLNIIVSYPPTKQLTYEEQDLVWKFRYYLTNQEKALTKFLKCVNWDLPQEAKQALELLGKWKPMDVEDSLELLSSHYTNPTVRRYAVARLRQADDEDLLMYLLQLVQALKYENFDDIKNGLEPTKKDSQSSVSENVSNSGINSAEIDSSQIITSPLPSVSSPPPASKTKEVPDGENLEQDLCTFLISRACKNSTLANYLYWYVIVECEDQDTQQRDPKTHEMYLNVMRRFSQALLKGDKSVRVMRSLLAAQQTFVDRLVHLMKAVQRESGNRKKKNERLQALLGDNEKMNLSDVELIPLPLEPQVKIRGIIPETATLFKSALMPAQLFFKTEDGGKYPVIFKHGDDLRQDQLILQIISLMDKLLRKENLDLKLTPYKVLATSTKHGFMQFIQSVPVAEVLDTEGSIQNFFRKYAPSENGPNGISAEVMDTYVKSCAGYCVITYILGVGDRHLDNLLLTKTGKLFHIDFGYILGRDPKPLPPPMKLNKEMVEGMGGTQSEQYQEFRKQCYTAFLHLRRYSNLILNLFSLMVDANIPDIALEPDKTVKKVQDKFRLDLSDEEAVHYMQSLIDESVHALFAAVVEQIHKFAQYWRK

PI 4-kinase beta = PI 4-kinase beta (Homo sapiens, UniProt Q9UBF8); experiment: Kinase Glo Luminescent Kinase Assay (Kglo), assay D; type: biochemical; conditions: read-out: Assay D PI4Kβ IC50
PI 4-kinase beta, sequence (Q9UBF8 whole entry): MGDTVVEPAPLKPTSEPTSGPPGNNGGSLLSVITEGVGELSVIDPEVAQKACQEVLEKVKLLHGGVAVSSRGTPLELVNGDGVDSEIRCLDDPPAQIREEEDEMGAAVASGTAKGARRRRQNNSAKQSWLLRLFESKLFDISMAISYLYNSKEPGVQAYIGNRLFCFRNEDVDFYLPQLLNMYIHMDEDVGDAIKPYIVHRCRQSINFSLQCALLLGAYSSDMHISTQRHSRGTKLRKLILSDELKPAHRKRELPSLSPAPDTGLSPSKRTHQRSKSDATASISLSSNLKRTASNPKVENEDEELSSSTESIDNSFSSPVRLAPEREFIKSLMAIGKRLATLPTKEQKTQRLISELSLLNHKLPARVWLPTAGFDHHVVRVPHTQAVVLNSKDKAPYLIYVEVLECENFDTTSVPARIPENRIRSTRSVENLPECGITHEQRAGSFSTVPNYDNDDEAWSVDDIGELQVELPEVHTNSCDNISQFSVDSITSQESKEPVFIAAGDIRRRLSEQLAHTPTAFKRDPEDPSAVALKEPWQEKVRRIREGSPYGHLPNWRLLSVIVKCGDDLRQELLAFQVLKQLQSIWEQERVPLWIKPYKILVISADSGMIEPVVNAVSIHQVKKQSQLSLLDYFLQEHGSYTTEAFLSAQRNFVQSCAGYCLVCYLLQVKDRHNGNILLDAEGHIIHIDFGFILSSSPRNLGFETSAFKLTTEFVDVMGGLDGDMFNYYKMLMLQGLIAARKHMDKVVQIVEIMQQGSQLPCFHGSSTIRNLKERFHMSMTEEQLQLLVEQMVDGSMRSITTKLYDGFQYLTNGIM

PI 3-kinase gamma [3] = target: T3, PI 3-kinase gamma (Homo sapiens, UniProt P48736); experiment: TR-FRET Adapta assay, assay E; type: biochemical; conditions: read-out: Assay E PI3Kγ IC50
T3 sequence (P48736 whole entry): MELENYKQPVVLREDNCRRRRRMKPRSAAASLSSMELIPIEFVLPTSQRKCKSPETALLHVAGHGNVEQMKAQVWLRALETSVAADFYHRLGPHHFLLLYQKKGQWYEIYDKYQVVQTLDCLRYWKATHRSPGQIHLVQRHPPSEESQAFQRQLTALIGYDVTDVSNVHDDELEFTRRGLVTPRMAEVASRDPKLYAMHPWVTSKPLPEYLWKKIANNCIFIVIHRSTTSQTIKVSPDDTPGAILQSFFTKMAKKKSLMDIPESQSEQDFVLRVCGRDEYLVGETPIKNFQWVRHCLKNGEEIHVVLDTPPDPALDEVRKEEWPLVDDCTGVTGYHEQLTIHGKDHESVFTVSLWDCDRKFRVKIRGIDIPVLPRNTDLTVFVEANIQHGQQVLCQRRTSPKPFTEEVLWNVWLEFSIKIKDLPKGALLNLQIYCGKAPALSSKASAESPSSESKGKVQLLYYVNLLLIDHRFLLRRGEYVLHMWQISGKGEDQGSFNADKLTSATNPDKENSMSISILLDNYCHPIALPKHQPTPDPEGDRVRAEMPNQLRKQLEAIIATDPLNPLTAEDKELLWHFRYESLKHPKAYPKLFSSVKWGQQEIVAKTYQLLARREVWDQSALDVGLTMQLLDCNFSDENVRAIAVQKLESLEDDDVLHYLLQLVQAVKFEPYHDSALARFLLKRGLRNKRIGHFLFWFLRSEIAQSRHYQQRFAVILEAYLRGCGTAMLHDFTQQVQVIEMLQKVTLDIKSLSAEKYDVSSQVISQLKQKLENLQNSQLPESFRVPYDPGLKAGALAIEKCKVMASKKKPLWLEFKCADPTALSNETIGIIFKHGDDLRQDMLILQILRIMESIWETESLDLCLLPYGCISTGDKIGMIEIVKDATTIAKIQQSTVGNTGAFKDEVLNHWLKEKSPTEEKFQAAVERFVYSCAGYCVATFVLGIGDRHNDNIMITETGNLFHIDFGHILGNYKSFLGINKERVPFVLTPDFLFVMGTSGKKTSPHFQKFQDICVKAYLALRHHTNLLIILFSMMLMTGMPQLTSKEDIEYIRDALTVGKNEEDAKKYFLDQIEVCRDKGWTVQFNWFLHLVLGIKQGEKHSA

mTOR = mTOR (Homo sapiens, UniProt P42345); experiment: Lanthascreen kinase binding assay, assay G; conditions: read-out: Assay G mTOR IC50
Protocol: Lanthascreen™ Kinase Binding Assay for mTOR (G)
Binding of an inhibitor to the kinase competes for binding with the tracer, resulting in a loss of FRET.
50 nL of compound dilutions were dispensed onto white 384-well small volume polystyrene plate.

PI 3-kinase gamma [4] = target: T3, PI 3-kinase gamma; experiment: Cellular U937 AKT assay K1 (MSD); type: cell-based; conditions: U937 cells, K1 format; read-out: Assay K1 PI3Kγ IC50
[5] = system: IL-8-induced neutrophil shape change in human whole blood; experiment: Whole blood neutrophil shape change assay (L); type: cell-based; conditions: Homo sapiens, Neutrophil, IL-8, human whole blood, read-out: Assay L WBSC IC50
PI 3-kinase delta [6] = target: T4, PI 3-kinase delta (Homo sapiens, UniProt O00329); experiment: TR-FRET Adapta assay, assay F; conditions: read-out: Assay F PI3Kδ IC50
Target sequence in this assay (O00329 whole entry): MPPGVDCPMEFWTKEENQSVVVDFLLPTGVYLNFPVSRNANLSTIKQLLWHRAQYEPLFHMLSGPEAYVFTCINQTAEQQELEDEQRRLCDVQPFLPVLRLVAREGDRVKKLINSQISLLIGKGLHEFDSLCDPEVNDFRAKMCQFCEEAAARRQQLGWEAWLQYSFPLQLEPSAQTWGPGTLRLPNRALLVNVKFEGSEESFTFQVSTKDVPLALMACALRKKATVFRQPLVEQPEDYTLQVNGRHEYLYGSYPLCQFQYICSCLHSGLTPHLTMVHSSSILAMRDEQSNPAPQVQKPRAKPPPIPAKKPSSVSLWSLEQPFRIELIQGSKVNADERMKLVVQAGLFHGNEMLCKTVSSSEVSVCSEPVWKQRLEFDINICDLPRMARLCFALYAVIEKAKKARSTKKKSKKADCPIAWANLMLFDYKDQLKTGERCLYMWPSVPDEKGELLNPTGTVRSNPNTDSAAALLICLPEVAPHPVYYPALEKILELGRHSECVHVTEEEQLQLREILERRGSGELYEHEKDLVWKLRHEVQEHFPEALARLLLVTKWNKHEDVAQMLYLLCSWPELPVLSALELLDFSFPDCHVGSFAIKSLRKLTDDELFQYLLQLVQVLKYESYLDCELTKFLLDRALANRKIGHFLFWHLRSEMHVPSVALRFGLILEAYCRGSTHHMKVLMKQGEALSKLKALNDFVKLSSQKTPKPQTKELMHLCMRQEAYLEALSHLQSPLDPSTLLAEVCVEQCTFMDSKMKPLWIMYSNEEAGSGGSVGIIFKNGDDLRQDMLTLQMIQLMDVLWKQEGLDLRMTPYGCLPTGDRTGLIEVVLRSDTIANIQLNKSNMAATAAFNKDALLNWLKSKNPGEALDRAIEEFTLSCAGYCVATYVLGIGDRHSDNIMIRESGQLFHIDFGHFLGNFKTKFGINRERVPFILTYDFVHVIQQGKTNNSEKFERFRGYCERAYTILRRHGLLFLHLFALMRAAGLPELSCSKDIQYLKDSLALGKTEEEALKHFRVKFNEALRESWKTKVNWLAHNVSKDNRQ
Target sequence in this assay (P27986 461-568 partner): as the sequence (P27986 461-568 partner) above

[7] = Microsomal clearance assay (M); conditions: intrinsic clearance in rat liver microsomes
Protocol: The experiments were performed in 96-well glass plates at 37° C. on an automated Tecan EVO platform. Test compounds at a concentration of 10 mM in pure DMSO were diluted 1:1000 in water to 10 μM. […] Reactions were initiated by the addition of 150 μL of a cofactor solution containing 2 mM NADPH.

PI 3-kinase alpha [8] = target: T1, PI 3-kinase alpha; experiment: Cellular assay H1, p-Akt (S473) in Rat-1 cells, Surefire format; type: cell-based; conditions: non-asterisked data: version H1 (Surefire format), Rat-1 cells; read-out: Assay H PI3Kα IC50
PI 3-kinase beta [9] = target: T2, PI 3-kinase beta; experiment: Cellular assay I1, p-Akt (S473) in Rat-1 cells, Surefire format; type: cell-based; conditions: non-asterisked data: version I1 (Surefire format), Rat-1 cells; read-out: Assay I PI3Kβ IC50
PI 3-kinase delta [10] = target: T4, PI 3-kinase delta; experiment: Cellular assay J1, p-Akt (S473) in Rat-1 cells, Surefire format; type: cell-based; conditions: non-asterisked data: version J1 (Surefire format), Rat-1 cells; read-out: Assay J PI3Kδ IC50

Row | SMILES | pIC50 (PI 3-kinase alpha [1]) | pIC50 (PI 3-kinase beta [2]) | pIC50 (Vps34) | pIC50 (PI 4-kinase beta) | pIC50 (PI 3-kinase gamma [3]) | pIC50 (mTOR) | pIC50 (PI 3-kinase gamma [4]) | pIC50 [5] | pIC50 (PI 3-kinase delta [6]) | Assay M RLM CI(int) [7] | pIC50 (PI 3-kinase alpha [8]) | pIC50 (PI 3-kinase beta [9]) | pIC50 (PI 3-kinase delta [10])
1 | Cc1ccc(S(=O)(=O)NCC(C)(C)CO)cc1-c1cnc(N)c(-c2cc(C3CC3)no2)n1 [Example 99, 3-(5-Amino-6-(3-cyclopropylisoxazol-5-yl)pyrazin-2-yl)-N-(3-hydroxy-2,2-dimethylpropyl)-4-methylbenzenesulfonamide] | 6.13 | 5.78 | 5.53 | 5.57 | 7.85 | 5.31 | 7.23 | 5.45 | 6.85 | 74 µL/min/mg | – | – | –
2 | Cc1ccc(S(=O)(=O)NCC2(O)CC2)cc1-c1cnc(N)c(-n2cncn2)n1 [Example 28, 3-(5-Amino-6-[1,2,4]triazol-1-yl-pyrazin-2-yl)-N-(1-hydroxy-cyclopropylmethyl)-4-methyl-benzenesulfonamide] | 6.17 | 5.37 | < 5.04 | 5.05 | 7.59 | < 5.04 | 6.55 | 6.12 | 6.25 | 34 µL/min/mg | – | – | –
3 | Cc1ccc(S(=O)(=O)NCCC(C)(C)O)cc1-c1cnc(N)c(-c2cc[nH]n2)n1 [Example 119.42] | 6.15 | 5.63 | < 5.04 | 6.06 | 7.16 | < 5.04 | 6.70 | 5.65 | 6.44 | 41 µL/min/mg | – | – | –
4 | Cc1ccc(S(=O)(=O)NCCC(C)(C)O)cc1-c1cnc(N)c(-c2ccc(C3CC3)s2)n1 [Example 119.46] | 6.60 | – | < 5.04 | 6.21 | 6.96 | 5.17 | 7.09 | 5.04 | 7.15 | 122 µL/min/mg | – | – | –
5 | Cc1ccc(S(=O)(=O)NCCC(C)(C)O)cc1-c1cnc(N)c(-c2ccc(CO)s2)n1 [Example 119.35] | 7.10 | 6.03 | < 5.04 | 6.13 | 7.89 | 5.41 | 7.74 | 5.99 | 7.15 | 78 µL/min/mg | – | – | –
6 | Cc1ccc(S(=O)(=O)NCC(=O)C(C)(C)C)cc1-c1cnc(N)c(-n2cncn2)n1 [Example 36, 3-(5-Amino-6-[1,2,4]triazol-1-yl-pyrazin-2-yl)-N-(3,3-dimethyl-2-oxo-butyl)-4-methyl-benzenesulfonamide] | 6.80 | 6.07 | < 5.00 | 5.10 | 7.77 | 6.60 | 7.29 | 6.32 | 6.96 | 710 µL/min/mg | – | – | –
7 | Cc1ccc(S(=O)(=O)NCC(C)(C)O)cc1-c1cnc(N)c(-c2nc(C3CC3)no2)n1 [Example 95, 3-(5-Amino-6-(3-cyclopropyl-1,2,4-oxadiazol-5-yl)pyrazin-2-yl)-N-(2-hydroxy-2-methylpropyl)-4-methylbenzenesulfonamide] | 6.05 | 5.39 | < 5.02 | < 5.02 | 7.44 | 5.13 | 6.58 | 5.80 | 6.14 | 53 µL/min/mg | – | – | –
8 | Cc1cc(C)n(-c2nc(-c3cc(S(=O)(=O)NCC(C)(C)O)ccc3C)cnc2N)n1 [Example 48, 3-(5-Amino-6-(3,5-dimethyl-1H-pyrazol-1-yl)pyrazin-2-yl)-N-(2-hydroxy-2-methylpropyl)-4-methyl benzenesulfonamide] | 5.59 | 5.14 | < 5.00 | < 5.00 | 7.09 | < 5.00 | 6.31 | 5.82 | 6.04 | 59 µL/min/mg | – | – | –
9 | Cc1ccc(-c2nc(-c3cc(S(=O)(=O)NCCC(C)(C)O)ccc3C)cnc2N)s1 [Example 119.44] | 6.92 | 5.86 | < 5.04 | 6.12 | 7.00 | 5.40 | 7.38 | 5.15 | 7.40 | 137 µL/min/mg | – | – | –
10 | Cc1csc(-c2nc(-c3cc(S(=O)(=O)NCC(C)(C)O)ccc3C)cnc2N)n1 [Example 80, 3-(5-Amino-6-(4-methylthiazol-2-yl)pyrazin-2-yl)-N-(2-hydroxy-2-methylpropyl)-4-methylbenzenesulfonamide] | 6.60 | 5.77 | < 5.00 | 5.34 | 7.11 | < 5.00 | 7.01 | 5.54 | 6.40 | 106 µL/min/mg | – | – | –
11 | Cc1ccc(S(=O)(=O)NC2(CO)CC2)cc1-c1cnc(N)c(-n2cncn2)n1 [Example 98, 3-(5-Amino-6-(1H-1,2,4-triazol-1-yl)pyrazin-2-yl)-N-(1-(hydroxymethyl)cyclopropyl)-4-methylbenzenesulfonamide] | 5.77 | 5.85 | < 5.04 | 5.60 | 7.42 | < 5.04 | 6.70 | 5.38 | 6.51 | 31 µL/min/mg | – | – | –
12 | Cc1ccc(S(=O)(=O)NCCC(C)(C)O)cc1-c1cnc(N)c(-c2ccnn2C)n1 [Example 77, 3-(5-Amino-6-(1-methyl-1H-pyrazol-5-yl)pyrazin-2-yl)-N-(3-hydroxy-3-methylbutyl)-4-methylbenzenesulfonamide] | 6.64 | 5.38 | < 5.04 | < 5.04 | 7.47 | 5.26 | 6.87 | 6.06 | 6.52 | 45 µL/min/mg | – | – | –
13 | CCn1ncc(-c2nc(-c3cc(S(=O)(=O)NCC(C)(C)O)ccc3C)cnc2N)n1 [Example 82, 3-(5-Amino-6-(2-ethyl-2H-1,2,3-triazol-4-yl)pyrazin-2-yl)-N-(2-hydroxy-2-methylpropyl)-4-methylbenzenesulfonamide] | 6.74 | 5.26 | < 5.00 | < 5.00 | 7.39 | < 5.00 | – | 6.08 | 6.27 | 25 µL/min/mg | 6.07 | 5.53 | 6.21

The next lines start with the values.

Row | pIC50 (PI 3-kinase alpha [1]) | pIC50 (PI 3-kinase beta [2]) | pIC50 (Vps34) | pIC50 (PI 4-kinase beta) | pIC50 (PI 3-kinase gamma [3]) | pIC50 (mTOR) | pIC50 (PI 3-kinase gamma [4]) | pIC50 [5] | pIC50 (PI 3-kinase delta [6]) | Assay M RLM CI(int) [7] | pIC50 (PI 3-kinase alpha [8]) | pIC50 (PI 3-kinase beta [9]) | pIC50 (PI 3-kinase delta [10]) | SMILES
14 | 6.70 | 5.74 | < 5.00 | 5.06 | 7.59 | 5.02 | 6.62 | 5.96 | 6.10 | – | – | – | – | Cc1ccc(S(=O)(=O)NC[C@H]2CCOC2)cc1-c1cnc(N)c(-n2cncn2)n1 [Example 127.27]
15 | 6.59 | 5.89 | < 5.00 | 5.41 | 7.21 | < 5.00 | 6.82 | 5.79 | 6.21 | – | – | – | – | Cc1ccc(S(=O)(=O)NCC2CCCOC2)cc1-c1cnc(N)c(-n2cncn2)n1 (centres unmarked) [Example 127.19]
16 | 5.96 | 5.66 | < 5.00 | 5.18 | 7.22 | < 5.00 | 6.58 | 5.66 | 5.49 | – | – | – | – | Cc1ccc(S(=O)(=O)NCC2(O)COC2)cc1-c1cnc(N)c(-n2cncn2)n1 [Example 127.47]
17 | 6.04 | 5.59 | < 5.00 | 5.07 | 7.16 | 5.05 | 6.19 | 5.75 | 6.05 | – | – | – | – | Cc1ccc(S(=O)(=O)NC[C@H]2CCCO2)cc1-c1cnc(N)c(-n2cncn2)n1 [Example 127.14]
18 | 6.72 | 5.72 | < 5.00 | 5.28 | 7.62 | 5.12 | 6.90 | 5.41 | 6.10 | – | – | – | – | Cc1ccc(S(=O)(=O)NCCC2(O)CCCC2)cc1-c1cnc(N)c(-n2cncn2)n1 [Example 127.36]
19 | 6.25 | 5.77 | < 5.00 | 5.54 | 7.02 | 5.06 | 6.56 | 5.79 | 5.47 | – | – | – | – | Cc1ccc(S(=O)(=O)NCC(C)(F)F)cc1-c1cnc(N)c(-n2cncn2)n1 [Example 127.43]
